14 molecules from ChEMBL document CHEMBL3271991, “A series of hexahydro[1,4]oxazino[3,4-a]isoquinolines as potential neuroleptics” (J Med Chem, 1978) can be followed below.

The term ED50 denotes the dose at which the effect has come halfway, by size or by number of responders. As a reminder, the LD50 is the dose expected to kill half of the subjects tested.

Data set [1] deals with Felis catus. Kind of data set: Induction of muscle relaxant effect in cat at 20 mg/kg, iv. Format: functional, organism-based. Also noted: dose 20 mg/kg.
The test system of data set [2] is Rhesus monkey. Kind of data set: Neuroleptic activity in monkey assessed as taming effect at 16 mg/kg, ip. The format is functional, organism-based. On the set-up: dose 16 mg/kg. To be noted: Macaca mulatta.
In data set [3] the test system is Vulpes vulpes. Kind of data set: Neuroleptic activity in wild fox assessed as taming effect at 16 mg/kg, ip. Format: functional, organism-based. On the set-up: dose 16 mg/kg.
Data set [4] relates to Mus musculus. Kind of data set: Neuroleptic activity in ip dosed mouse assessed as blockade of prehensile reflex by measuring failure to hang measured for 5 secs. The format is functional.
Data set [5] has as its system Mus musculus. Kind of data set: Neuroleptic activity in ip dosed mouse assessed as blockade of traction reflex by measuring failure to grasp wire with hind paws measured for 5 secs. The format is functional.
Data set [6] deals with Mus musculus. Description: Neuroleptic activity in mouse assessed as blockade of corneal reflex by measuring failure to blink at 640 mg/kg, ip. On the set-up: dose 640 mg/kg. Format: functional, organism-based. To be noted: Cornea.
The test system of data set [7] is Mus musculus. Kind of data set: Neuroleptic activity in mouse assessed as blockade of righting reflex by measuring failure to right to normal position at 640 mg/kg, ip measured for 30 secs. Format: functional, organism-based. On the set-up: dose 640 mg/kg.
Data set [8] relates to Mus musculus. Kind of data set: Neuroleptic activity in mouse assessed as blockade of prehensile reflex by measuring failure to hang at 640 mg/kg, ip measured for 5 secs. Format: functional, organism-based. On the set-up: dose 640 mg/kg.
Data set [9] relates to Mus musculus. Kind of data set: Neuroleptic activity in mouse assessed as blockade of traction reflex by measuring failure to grasp wire with hind paws at 640 mg/kg, ip measured for 5 secs. Format: functional, organism-based. On the set-up: dose 640 mg/kg.
Data set [10] concerns Gerbillinae. Description: Neuroleptic activity in gerbil assessed as escape latency time at 2.5 mg/kg, ip measured up to 50 mins by sidman avoidance test relative to control. Format: functional. To be noted: route intraperitoneal.
The test system of data set [11] is Gerbillinae. Kind of data set: Neuroleptic activity in gerbil assessed as escape latency time at 5 mg/kg, ip measured up to 50 mins by sidman avoidance test relative to control. The format is functional. To be noted: route intraperitoneal.
Data set [12] relates to Gerbillinae. Description: Neuroleptic activity in gerbil assessed as escape latency time at 20 mg/kg, ip measured up to 50 mins by sidman avoidance test relative to control. The format is functional. To be noted: route intraperitoneal.
In data set [13] the test system is Gerbillinae. Description: Neuroleptic activity in gerbil assessed as escape latency time at 10 mg/kg, ip measured up to 50 mins by sidman avoidance test relative to control. To be noted: route intraperitoneal. Format: functional.
Data set [14] has as its system Gerbillinae. Kind of data set: Neuroleptic activity in gerbil assessed as escape latency time at 1 mg/kg, ip measured up to 50 mins by sidman avoidance test relative to control. The format is functional. To be noted: route intraperitoneal.
The subject of data set [15] is Mus musculus. Kind of data set: Neuroleptic activity in ip dosed mouse assessed as blockade of righting reflex by measuring failure to right to normal position measured for 30 secs. Format: functional.
In data set [16] the test system is Vulpes vulpes. Description: Neuroleptic activity in wild fox assessed as taming effect at 4 mg/kg, ip. The format is functional, organism-based. Also noted: dose 4 mg/kg.
Data set [17] in a line: Toxicity in wild fox assessed as ataxia at 4 mg/kg, ip. Format: organism-based. On the set-up: dose 4 mg/kg, route intraperitoneal. To be noted: vulpes vulpes, in vivo.
Data set [18] deals with Mus musculus. Kind of data set: Neuroleptic activity in ip dosed mouse assessed as blockade of corneal reflex by measuring failure to blink. Format: functional. To be noted: Cornea.
Data set [19] concerns Gerbillinae. Kind of data set: Neuroleptic activity in gerbil assessed as escape latency time at 2 mg/kg, ip measured up to 50 mins by sidman avoidance test relative to control. Format: functional. To be noted: route intraperitoneal.
Data set [20] relates to Gerbillinae. Kind of data set: Neuroleptic activity in gerbil assessed as escape latency time at 0.5 mg/kg, ip measured up to 50 mins by sidman avoidance test relative to control. Format: functional. To be noted: route intraperitoneal.
In data set [21] the test system is Gerbillinae. Description: Neuroleptic activity in gerbil assessed as escape latency time at 40 mg/kg, ip measured up to 50 mins by sidman avoidance test relative to control. Format: functional. To be noted: route intraperitoneal.
Data set [22] relates to Gerbillinae. Kind of data set: Neuroleptic activity in gerbil assessed as escape latency time at 80 mg/kg, ip measured up to 50 mins by sidman avoidance test relative to control. Format: functional. To be noted: route intraperitoneal.
The subject of data set [23] is Gerbillinae. Kind of data set: Neuroleptic activity in gerbil assessed as escape latency time at 8 mg/kg, ip measured up to 50 mins by sidman avoidance test relative to control. Format: functional. To be noted: route intraperitoneal.
Data set [24] in a line: Toxicity in po dosed mouse. Format: organism-based. To be noted: in vivo.
Data set [25] has as its system Rhesus monkey. Kind of data set: Toxicity in monkey assessed as ataxia at 16 mg/kg, ip. The format is organism-based, Macaca mulatta. Also noted: dose 16 mg/kg, route intraperitoneal. To be noted: in vivo.
Data set [26] deals with Gerbillinae. Description: Neuroleptic activity in gerbil assessed as escape latency time at 16 mg/kg, ip measured up to 50 mins by sidman avoidance test relative to control. To be noted: route intraperitoneal. Format: functional.
Data set [27] can be described thus: Toxicity in ip dosed mouse. To be noted: in vivo. The format is organism-based.
A short description of data set [28]: Toxicity in wild fox assessed as ataxia at 16 mg/kg, ip. Format: organism-based. Also noted: dose 16 mg/kg, route intraperitoneal. To be noted: vulpes vulpes, in vivo.
For data set [29], the system named is Gerbillinae. Description: Neuroleptic activity in ip dosed gerbil up to 50 mins by sidman avoidance test. To be noted: read-out: MED. Format: functional.
The test system of data set [30] is Gerbillinae. Kind of data set: Neuroleptic activity in gerbil assessed as escape latency time at 4 mg/kg, ip measured up to 50 mins by sidman avoidance test relative to control. Format: functional. To be noted: route intraperitoneal.
Data set [31] has as its system Vulpes vulpes. Kind of data set: Neuroleptic activity in wild fox assessed as taming effect at 32 mg/kg, ip. The format is functional, organism-based. On the set-up: dose 32 mg/kg.
A short description of data set [32]: Toxicity in wild fox assessed as ataxia at 32 mg/kg, ip. On the set-up: dose 32 mg/kg, route intraperitoneal. Format: organism-based. To be noted: vulpes vulpes, in vivo.
The mark [33] stands for this setting: Mus musculus, ip, read-out: ED50.

The source made the active and inactive calls. The rule behind the calls is not given here.

With `CCN(CC)C(=O)[C@H]1CN2CCc3cc(OC)c(OC)cc3[C@H]2CO1` (racemic), the outcome in data set [1], in [2] and in data set [3] was Active.

Take `CCN(CC)C(=O)[C@H]1CN2CCc3cc(OC)c(OC)cc3[C@H]2CO1` (relative stereo): the figures for the ED50 in data set [4] (setting [33]) and in data set [5] (setting [33]) were 500 mg/kg and 110 mg/kg, respectively.

Regarding `CCOC(=O)[C@H]1CN2CCc3cc(OC)c(OC)cc3[C@H]2CO1` (relative stereo), the result in data set [6], in data set [7], in data set [8] and in data set [9] was inactive.

For the molecule `COc1cc2c(cc1OC)[C@H]1CO[C@H](C#N)CN1CC2` (relative stereo), the values for the ED50 in data set [4] (setting [33]) and in [5] (setting [33]) were greater than 640 mg/kg and 180 mg/kg, respectively.

Consider `CCN(CC)C(=O)C1CN2CCc3cc(OC)c(OC)cc3C2CO1` (stereo in doubt; 20), for which the ED50 turned out to be 460 mg/kg in [4] and 150 mg/kg in data set [5]. Moreover, the Time in [10] stood at 0.5 s; in data set [11], 0.6 s; in data set [12] it was 2.4 s; in data set [13], 1.2 s.

As to `CN(C)CCCN1c2ccccc2Sc2ccc(Cl)cc21` [CHLORPROMAZINE], the Time in [14] is 1.1 s; in data set [19], 0.8 s; in data set [20], 1 s. Also, the ED50 in [4] (setting [33]) came to 74 mg/kg; in [15], 115 mg/kg; in data set [5] (setting [33]) it was 6 mg/kg; in [18], 160 mg/kg. Moreover, in [16], the outcome was Active. Besides, the Activity entry in [17] is “Non-toxic”.

With `COc1cc2c(cc1OC)[C@H]1CO[C@@H](C(=O)N3CCOCC3)CN1CC2` (relative stereo), the values for the ED50 in data set [4] (setting [33]) and in data set [5] (setting [33]) were greater than 640 mg/kg and 200 mg/kg, respectively.

Consider `CCN(CC)C(=O)C1CN2CCc3cc(OC)c(OC)cc3C2CO1` (stereo in doubt; 19), for which the Time in data set [21] came to 1.2 s; in data set [22], 2.2 s; in data set [12], 0.5 s. The values for the ED50 in data set [4] (setting [33]) and in data set [5] (setting [33]) were 400 mg/kg and 125 mg/kg, respectively.

Regarding `COc1cc2c(cc1OC)[C@H]1CO[C@@H](C(=O)N3CCCCC3)CN1CC2` (relative stereo), the ED50 in data set [4] (setting [33]) turned out to be 280 mg/kg; in [15] it was 280 mg/kg; in data set [5] (setting [33]) it was 180 mg/kg; in data set [18], 450 mg/kg.

`CCN(CC)C(=O)[C@H]1CN2CCc3cc(OC)c(OC)cc3[C@H]2CO1.Cl` (racemic): the Time in data set [23] was 0.5 s; in data set [26], 0.8 s; in data set [19] it was 0.6 s; in data set [30], 0.8 s. Also, the ED50 turned out to be 400 mg/kg in [4] (setting [33]) and 100 mg/kg in data set [5] (setting [33]). For the same molecule, the LD50 turned out to be 1400 mg/kg in data set [24] and 1100 mg/kg in [27]. Also, the Activity entry in [25] and in [28] was “Non-toxic” throughout. The minimal effective dose in data set [29] amounted to 25 mg/kg.

As to `COc1cc2c(cc1OC)[C@H]1CO[C@@H](C(=O)N3CCCC3)CN1CC2` (relative stereo), the ED50 is greater than 640 mg/kg in data set [4] (setting [33]) and 180 mg/kg in data set [5] (setting [33]).

For `CCCC(C)(COC(N)=O)COC(N)=O` [MEPROBAMATE], the ED50 came out at 225 mg/kg in data set [4] (setting [33]), 320 mg/kg in data set [15], 160 mg/kg in [5] (setting [33]) and 400 mg/kg in data set [18].

Regarding `CNC1=Nc2ccccc2C(c2ccccc2)=[N+]([O-])C1`, in data set [31], the outcome was Active. Moreover, the Activity result in [32] was “Non-toxic”.

Consider `CCC1(c2ccccc2)C(=O)NC(=O)NC1=O` [PHENOBARBITAL], for which the ED50 in data set [4] (setting [33]) worked out at 82 mg/kg; in data set [15], 140 mg/kg; in data set [5] (setting [33]), 64 mg/kg; in data set [18], 100 mg/kg.
